{"source": "paper PMC3132048", "about": "“Treatment of experimental adjuvant arthritis with a novel folate receptor-targeted folic acid-aminopterin conjugate” (Arthritis Research & Therapy, 2011)", "key": {"[1]": {"target": "T1, human FRβ (CHO-FRβ cells) (Homo sapiens, UniProt P14207)", "T1 construct": "host or cells: CHO-K1 cells", "T1 sequence (P14207 17-255)": "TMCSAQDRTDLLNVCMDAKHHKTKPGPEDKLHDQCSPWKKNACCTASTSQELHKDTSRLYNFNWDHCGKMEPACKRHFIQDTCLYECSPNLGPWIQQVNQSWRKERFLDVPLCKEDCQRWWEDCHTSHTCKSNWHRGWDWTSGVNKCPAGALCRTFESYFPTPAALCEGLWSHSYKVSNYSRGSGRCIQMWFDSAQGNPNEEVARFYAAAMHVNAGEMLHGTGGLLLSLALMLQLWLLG", "experiment": "Relative affinity assay: displacement of [3H]FA from CHO-FRβ cells", "assay_type": "binding", "conditions": "37°C, competitor of [3H]FA, inverse molar ratio to displace 50%", "method": "The relative affinities of EC0746, AMT, and MTX were determined according to a previously established method except that both KB cells and CHO-FRβ cells were used as the sources of FR [33]. KB cells are a human cancer cell line known for elevated expression of FRα. CHO-FRβ cells were obtained from Manohar Ratnam, Department of Biochemistry and Cancer Biology, The University of Toledo (Toledo, OH, USA). This cell line was originally generated by stable integration and amplification of a human FRβ cDNA expression construct in CHO-K1 cells."}, "[2]": {"test_system": "TNFα production in RAW264.7 cells", "experiment": "LPS-stimulated TNFα production (ELISA)", "assay_type": "cell-based, murine", "method": "RAW264.7 cells in 96-well plates (3.5 × 10^4 cells/well) were treated with 10-fold serial dilutions of EC0746 (≤1 μM) in FFRPMI medium without and with 100-fold molar excess of FA. After a 2-hour exposure, the drug-containing media were replaced and the cells were allowed to incubate further for 70 hours (referred in the text as a 70-hour chase). In comparison, the cells were also treated continuously with AMT for 72 hours. Four hours prior to the end of incubation, LPS was added to the treated cells at a final concentration of 100 ng/ml. Then 100 μl culture supernatants were collected for TNFα analysis by ELISA. The cell viability was assessed by adding XTT to the remaining media for an additional 4 hours following the manufacturer's instructions. To evaluation of a cytostatic effect, RAW264.7 cells seeded at 1 × 10^6 cells/well in six-well plates were subjected to 2-hour exposure and a 70-hour chase with 0, 0.1, 10, and 1000 nM EC0746 without and with excess FA. At the end of the incubation (no LPS added), the surviving cells (that is, still viable cells) were recovered and redistributed in equal numbers in fresh medium for an additional 72 hours. The cell proliferation was again assessed by the XTT assay. All results were expressed as the percentage absorbance (minus background) relative to the untreated control cells."}, "[3]": {"experiment": "Preliminary short-term toxicity / MTD in folate-deficient healthy rats", "assay_type": "in vivo, rat", "conditions": "folate-deficient rats", "method": "The short-term toxicity and MTD of EC0746 and AMT were evaluated in healthy rats following the standard BIW subcutaneous dosing regimen used for efficacy studies. Further, these animals were put on a folate-deficient diet for ~20 days before treatment to match the folate deficiency status of AIA rats used for therapy. The folate-deficient but nonarthritic animals were thus given increasing doses of EC0746 and AMT for two consecutive weeks on a BIW basis. […] Standard hematologic and blood chemistry parameters were examined as needed along with histopathology."}}, "note": "Several values for one entry are separate records, joined by “and”; a condition that tells them apart may be missing. Identical values can stand only once.", "data": [{"smiles": "Nc1nc(N)c2nc(CNc3ccc(C(=O)N[C@@H](CCC(=O)NNC(=O)OCCSSC[C@H](NC(=O)[C@H](CCC(=O)NC[C@H](O)[C@@H](O)[C@H](O)[C@H](O)CO)NC(=O)[C@H](CCC(=O)O)NC(=O)[C@H](CCC(=O)NC[C@H](O)[C@@H](O)[C@H](O)[C@H](O)CO)NC(=O)[C@H](CCC(=O)O)NC(=O)[C@H](CCC(=O)NC[C@H](O)[C@@H](O)[C@H](O)[C@H](O)CO)NC(=O)CC[C@H](NC(=O)c4ccc(NCc5cnc6nc(N)[nH]c(=O)c6n5)cc4)C(=O)O)C(=O)O)C(=O)O)cc3)cnc2n1", "note": "[EC0746]", "values": [{"measurement": "Relative affinity value (FA = 1)", "setting": "[1]", "result": 0.27}, {"measurement": "IC50", "setting": "[2]; 2-hour pulse, 70-hour chase, LPS 100 ng/ml last 4 hours, read-out: Relative 50% inhibitory concentration, TNFα after LPS stimulation", "result": "~1.6", "unit": "nM"}, {"measurement": "TNFα effect competitive by excess FA", "setting": "[2]; 100-fold molar excess FA", "result": 100, "unit": "%"}, {"measurement": "Gastrointestinal-associated side effects at respective MTD doses", "setting": "[3]; compared with AMT", "result": "less of the gastrointestinal-associated side effects than AMT"}, {"measurement": "Difference in toxicity versus AMT (less toxic)", "setting": "[3]; s.c., ratio of MTDs", "result": "~ 40 fold and 40 fold"}]}]}
